One test has as its target TBK1 (Homo sapiens (Human), UniProt Q9UHD2). Description: TBK1 low ATP kinase assay (in vitro assay 1). The class given is biochemical. The following applies: TBK1 low ATP kinase assay IC50, in vitro assay 1.
Sequence of TBK1 (Q9UHD2 whole entry): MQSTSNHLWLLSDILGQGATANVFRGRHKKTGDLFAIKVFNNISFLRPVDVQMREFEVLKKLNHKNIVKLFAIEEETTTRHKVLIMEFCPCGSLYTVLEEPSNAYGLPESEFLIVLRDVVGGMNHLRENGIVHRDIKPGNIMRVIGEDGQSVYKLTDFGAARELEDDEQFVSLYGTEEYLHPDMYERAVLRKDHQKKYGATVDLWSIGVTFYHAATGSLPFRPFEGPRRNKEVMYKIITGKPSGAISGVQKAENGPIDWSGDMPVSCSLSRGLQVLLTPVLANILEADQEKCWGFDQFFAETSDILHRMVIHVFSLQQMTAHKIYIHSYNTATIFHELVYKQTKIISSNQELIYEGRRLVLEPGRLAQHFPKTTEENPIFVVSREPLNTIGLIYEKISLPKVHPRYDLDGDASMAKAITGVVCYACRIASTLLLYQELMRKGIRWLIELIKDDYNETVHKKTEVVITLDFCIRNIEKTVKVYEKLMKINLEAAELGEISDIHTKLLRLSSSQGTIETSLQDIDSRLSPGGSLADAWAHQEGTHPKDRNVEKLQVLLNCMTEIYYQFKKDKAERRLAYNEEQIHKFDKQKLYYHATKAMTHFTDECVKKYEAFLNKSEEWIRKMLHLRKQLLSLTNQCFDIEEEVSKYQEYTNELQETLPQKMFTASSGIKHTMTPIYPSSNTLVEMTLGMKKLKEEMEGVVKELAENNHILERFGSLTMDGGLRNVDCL
As a reminder, the IC50 is the concentration that inhibits the measured activity by half. In turn, `CC(c1ccnc(Nc2nc3ccc(-c4cnn(CC5CC5)c4)cc3[nH]2)c1)N1CCN(C(=O)CC(F)(F)F)CC1` (single isomer, unassigned) [Example 39.02.02, 1-(4-{(1R or 1S)-1-[2-({6-[1-(cyclopropylmethyl)-1H-pyrazol-4-yl]-1H-benzimidazol-2-yl}amino)pyridin-4-yl]ethyl}piperazin-1-yl)-3,3,3-trifluoropropan-1-one] yielded an IC50 of 1.8 nM.

Still in this test, the particulars now being: in vitro assay 1, read-out: TBK1 low ATP kinase assay IC50.
For `O=C(CC(F)(F)F)N1CCN(Cc2ccnc(Nc3nc4ccc(-c5ncnc6sccc56)cc4[nH]3)c2)CC1` [Example 105.01, 3,3,3-trifluoro-1-{4-[(2-{[6-(thieno[2,3-d]pyrimidin-4-yl)-1H-benzimidazol-2-yl]amino}pyridin-4-yl)methyl]piperazin-1-yl}propan-1-one], the IC50 amounted to 270 nM.

Regarding `CC(c1ccnc(Nc2nc3ccc(-c4cc(C(F)(F)F)ncn4)cc3[nH]2)c1)N1CCN(C(=O)CC(F)(F)F)CC1` (single isomer, unassigned) [Example 29.02.01.B, 3,3,3-trifluoro-1-(4-{(1S or 1R)-1-[2-({6-[6-(trifluoromethyl)pyrimidin-4-yl]-1H-benzimidazol-2-yl}amino)pyridin-4-yl]ethyl}piperazin-1-yl)propan-1-one], the IC50 came to 8.64 nM.

As to `O=C(C1CC1)N1CCN(Cc2ccnc(Nc3nc4ccc(-c5cc(C6CC6)ncn5)cc4[nH]3)c2)CC1` [Example 76.02, cyclopropyl{4-[(2-{[6-(6-cyclopropylpyrimidin-4-yl)-1H-benzimidazol-2-yl]amino}pyridin-4-yl)methyl]piperazin-1-yl}methanone], the IC50 was 9.4 nM.

Regarding `O=C(C1CC1)N1CCN(Cc2ccnc(Nc3nc4ccc(-c5cncnc5)cc4[nH]3)c2)CC1` [Example 45.01.03, cyclopropyl{4-[(2-{[6-(pyrimidin-5-yl)-1H-benzimidazol-2-yl]amino}pyridin-4-yl)methyl]piperazin-1-yl}methanone], the IC50 stood at 205 nM.

As to `O=C(C1CC1)N1CCN(Cc2ccnc(Nc3nc4ccc(-c5cc(NCC6CC6)ncn5)cc4[nH]3)c2)CC1` [Example 142.03, cyclopropyl[4-({2-[(6-{6-[(cyclopropylmethyl)amino]pyrimidin-4-yl}-1H-benzimidazol-2-yl)amino]pyridin-4-yl}methyl)piperazin-1-yl]methanone], the IC50 worked out at 3 nM.

As to `COc1cc(-c2ccc3nc(Nc4cc(C(C)N5CCN(C(=O)CC(F)(F)F)CC5)ccn4)[nH]c3c2)ncn1` (racemic) [Example 34.02.01, (rac)-3,3,3-trifluoro-1-{4-[1-(2-{[6-(6-methoxypyrimidin-4-yl)-1H-benzimidazol-2-yl]amino}pyridin-4-yl)ethyl]piperazin-1-yl}propan-1-one], the IC50 is 12.4 nM.

`Cc1noc(C)c1-c1cc(-c2ccc3nc(Nc4cc(CN5CCN(C(=O)OC(C)(C)C)CC5)ccn4)[nH]c3c2)ncn1` [Example 92.01, tert-butyl 4-{[2-({6-[6-(3,5-dimethyl-1,2-oxazol-4-yl)pyrimidin-4-yl]-1H-benzimidazol-2-yl}amino)pyridin-4-yl]methyl}piperazine-1-carboxylate]: the IC50 came out at 88 nM.

For the molecule `COCCOCCS(=O)(=O)N1CCN(Cc2ccnc(Nc3nc4ccc(-c5ncncc5OC)cc4[nH]3)c2)CC1` [Example 35.01.11, N-{4-[(4-{[2-(2-methoxyethoxy)ethyl]sulfonyl}piperazin-1-yl)methyl]pyridin-2-yl}-6-(5-methoxypyrimidin-4-yl)-1H-benzimidazol-2-amine], the IC50 was 28.6 nM.

As for `Cc1cccc(N2CCN(Cc3ccnc(Nc4nc5ccc(-c6nc(C)no6)cc5[nH]4)c3)CC2)n1` [Example 101.19, 6-(3-methyl-1,2,4-oxadiazol-5-yl)-N-(4-{[4-(6-methylpyridin-2-yl)piperazin-1-yl]methyl}pyridin-2-yl)-1H-benzimidazol-2-amine], the IC50 is 340 nM.

For `COc1cnc(C(=O)N(C)C)cc1-c1ccc2nc(Nc3cc(CN4CCN(C(=O)C5CC5)CC4)ccn3)[nH]c2c1` [Example 08.01, 4-{2-[(4-{[4-(cyclopropylcarbonyl)piperazin-1-yl]methyl}pyridin-2-yl)amino]-1H-benzimidazol-6-yl}-5-methoxy-N,N-dimethylpyridine-2-carboxamide], the IC50 amounted to 624 nM.

Take `CN(CC1CC1)c1cc(-c2ccc3nc(Nc4cc(CN5CCN(C(=O)CC(F)(F)F)CC5)ccn4)[nH]c3c2)ncn1` [Example 141.02, 1-[4-({2-[(6-{6-[(cyclopropylmethyl)(methyl)amino]pyrimidin-4-yl}-1H-benzimidazol-2-yl)amino]pyridin-4-yl}methyl)piperazin-1-yl]-3,3,3-trifluoropropan-1-one]: the IC50 was 19 nM.

Take `COc1cncnc1-c1ccc2nc(Nc3cc(CN4CCN(S(=O)(=O)C5CC5)CC4)ccn3)[nH]c2c1` [Example 35.01.12, N-(4-{[4-(cyclopropylsulfonyl)piperazin-1-yl]methyl}pyridin-2-yl)-6-(5-methoxypyrimidin-4-yl)-1H-benzimidazol-2-amine]: the IC50 amounted to 32.4 nM.

In the case of `Cc1cc(-c2ccc3nc(Nc4cc(C(C)N5CCN(C(=O)CC(F)(F)F)CC5)ccn4)[nH]c3c2Cl)ncn1` (single isomer, unassigned) [Example 98.02, 1-{4-[(1R or 1S)-1-(2-{[7-chloro-6-(6-methylpyrimidin-4-yl)-1H-benzimidazol-2-yl]amino}pyridin-4-yl)ethyl]piperazin-1-yl}-3,3,3-trifluoropropan-1-one], the IC50 worked out at 44 nM.

Turning to `CC(c1ccnc(Nc2nc3ccc(-c4cc(OCC(F)(F)C(F)(F)F)ncn4)cc3[nH]2)c1)N1CCN(C(=O)CC(F)(F)F)CC1` (single isomer, unassigned) [Example 166.02, 3,3,3-trifluoro-1-(4-{(1R or 1S)-1-[2-({6-[6-(2,2,3,3,3-pentafluoropropoxy)pyrimidin-4-yl]-1H-benzimidazol-2-yl}amino)pyridin-4-yl]ethyl}piperazin-1-yl)propan-1-one], the IC50 was 20.5 nM.

For `COc1nccc(-c2ccc3nc(Nc4cc(CN5CCN(C(=O)OC(C)(C)C)CC5)ccn4)[nH]c3c2)n1` [Example 25.01.01, tert-butyl 4-[(2-{[6-(2-methoxypyrimidin-4-yl)-1H-benzimidazol-2-yl]amino}pyridin-4-yl)methyl]piperazine-1-carboxylate], the IC50 stood at 174 nM.

`Cc1noc(-c2ccc3nc(Nc4cc(CN5CCN(C(=O)C6CC6)CC5)ccn4)[nH]c3c2)n1` [Example 16.01.04, cyclopropyl{4-[(2-{[6-(3-methyl-1,2,4-oxadiazol-5-yl)-1H-benzimidazol-2-yl]amino}pyridin-4-yl)methyl]piperazin-1-yl}methanone]: the IC50 was 67 nM.

For `CN(C)c1cc(-c2ccc3nc(Nc4cc(CN5CCN(C(=O)OC(C)(C)C)CC5)ccn4)[nH]c3c2)ccn1` [Example 135.01, tert-butyl 4-{[2-({6-[2-(dimethylamino)pyridin-4-yl]-1H-benzimidazol-2-yl}amino)pyridin-4-yl]methyl}piperazine-1-carboxylate], the IC50 came to 71 nM.

In the case of `CC(C)Cc1noc(-c2ccc3nc(Nc4cc(CN5CCN(C(=O)C6CC6)CC5)ccn4)[nH]c3c2)n1` [Example 18.02, cyclopropyl(4-{[2-({6-[3-(2-methylpropyl)-1,2,4-oxadiazol-5-yl]-1H-benzimidazol-2-yl}amino)pyridin-4-yl]methyl}piperazin-1-yl)methanone], the IC50 came to 154 nM.

For `Cc1cc(CN2CCN(C(=O)CC(F)(F)F)CC2)cc(Nc2nc3ccc(-c4ccncn4)cc3[nH]2)n1` [Example 23.02.01, 3,3,3-trifluoro-1-{4-[(2-methyl-6-{[6-(pyrimidin-4-yl)-1H-benzimidazol-2-yl]amino}pyridin-4-yl)methyl]piperazin-1-yl}propan-1-one], the IC50 worked out at 20.4 nM.

Regarding `COc1c(NCC2CC2)ncnc1-c1ccc2nc(Nc3cc(C(C)N4CCN(C(=O)CC(F)(F)F)CC4)ccn3)[nH]c2c1` (single isomer, unassigned) [Example 109.02.03, 1-{4-[(1R or 1S)-1-{2-[(6-{6-[(cyclopropylmethyl)amino]-5-methoxypyrimidin-4-yl}-1H-benzimidazol-2-yl)amino]pyridin-4-yl}ethyl]piperazin-1-yl}-3,3,3-trifluoropropan-1-one], the concentration for half-maximal inhibition (IC50) is 2.4 nM.

Turning to `COc1cnccc1-c1ccc2nc(Nc3cc(CN4CCN(C(=O)C5CC5)CC4)ccn3)[nH]c2c1OCC(C)C` [Example 50.02, cyclopropyl{4-[(2-{[6-(3-methoxypyridin-4-yl)-7-(2-methylpropoxy)-1H-benzimidazol-2-yl]amino}pyridin-4-yl)methyl]piperazin-1-yl}methanone], the IC50 stood at 333 nM.

As for `CC(c1ccnc(Nc2nc3ccc(-c4cc(OCC(F)(F)C(F)(F)F)ncn4)cc3[nH]2)c1)N1CCN(C(=O)C2CC2)CC1` (single isomer, unassigned) [Example 166.03, cyclopropyl(4-{(1R or 1S)-1-[2-({6-[6-(2,2,3,3,3-pentafluoropropoxy)pyrimidin-4-yl]-1H-benzimidazol-2-yl}amino)pyridin-4-yl]ethyl}piperazin-1-yl)methanone], the IC50 was 21.1 nM.

As to `COc1cncnc1-c1ccc2nc(Nc3cc(CN4CCN(C(=O)C5CC5)CC4)ccn3)[nH]c2c1` [Example 35.01.02, cyclopropyl{4-[(2-{[6-(5-methoxypyrimidin-4-yl)-1H-benzimidazol-2-yl]amino}pyridin-4-yl)methyl]piperazin-1-yl}methanone], the IC50 was 18 nM.

Take `COc1c(C)ncnc1-c1ccc2nc(Nc3cc(C(C)N4CCN(C(=O)CC(F)(F)F)CC4)ccn3)[nH]c2c1` (single isomer, unassigned) [Example 83.03, 3,3,3-trifluoro-1-{4-[(1R or 1S)-1-(2-{[6-(5-methoxy-6-methylpyrimidin-4-yl)-1H-benzimidazol-2-yl]amino}pyridin-4-yl)ethyl]piperazin-1-yl}propan-1-one]: the IC50 worked out at 2.2 nM.

For `Cc1noc(-c2ccc3nc(Nc4cc(CN5CCN(C(=O)CC(F)(F)F)CC5(C)C)ccn4)[nH]c3c2)n1` [Example 16.04.02, 1-{3,3-dimethyl-4-[(2-{[6-(3-methyl-1,2,4-oxadiazol-5-yl)-1H-benzimidazol-2-yl]amino}pyridin-4-yl)methyl]piperazin-1-yl}-3,3,3-trifluoropropan-1-one], the IC50 is 496 nM.

These data come from US10894784B2, “Heteroarylbenzimidazole compounds” (BAYER PHARMA AKTIENGESELLSCHAFT, priority 2015, dated 2021).
